Experimental findings from US12138256B2, “Treatment of cardiopulmonary disorders” (Bayer Aktiengesellschaft, priority 2021, dated 2024) are described below.

This assay has as its system isolated Langendorff-perfused rat heart. The assay can be described thus: Isolated perfused heart according to Langendorff: perfusion pressure and wash-out score (C-1.2). The settings on record: for wash-out score: PP recovery after 60 min of washout related to maximum drop of PP; for wash-out score / effect on perfusion pressure (PP): comparative example 11 300 nmol/l, others 100 nmol/l, n=6; for Perfusion pressure (%) (timepoint at 20 min) Mean: isolated Langendorff-perfused rat heart; for Perfusion pressure (%) (timepoint at 90 min) Mean: wash-out phase. Here is the method:
Male Wistar rats (strain HsdCpb:WU) with a body weight of 200-250 g were anaesthetized with Narcoren® (100 mg/kg). The thorax was opened and the heart was then exposed, excised and connected to a Langendorff apparatus by placing a cannula into the aorta. The heart was perfused retrogradely at 9 ml/min at constant flow with a Krebs-Henseleit buffer solution (gassed with 95% O2 and 5% CO2, pH 7.4, 35° C.; composition in mmol/l: NaCl 118; KCl 3; NaHCO3 22; KH2PO4 1.2; MgSO4 1.2; CaCl2 1.8; Glucose 10; Na pyruvate 2). A pressure transducer registered the perfusion pressure in the perfusion system. The left ventricular pressure (LVP) was measured using a second pressure transducer connected to a water-filled balloon which was inserted into the left ventricle via the left atrium. The end diastolic pressure was initially set to 8 mm Hg by adjusting the volume of the balloon. The hearts were spontaneously beating. The signals from the pressure transducer were amplified, registered by a personal computer (Powerlab Chart software, ADInstruments).
Then the hearts were perfused for a further 120 min without the test substance (wash-out phase). The reversibility of the effect (wash-out score) was calculated as a percentage of the PP recovery after 60 min of washout related to the maximum drop of PP induced by the test compound. The wash-out score obtained in this manner was taken as a measure for the residence time of the test substance at the site of action.

`O=C(O)CCCCN(CCc1ccccc1OCc1ccc(CCc2ccccc2)cc1)Cc1ccc(C(=O)O)cc1` [comparative example 1, 4-[((4Carboxybutyl)-{2-[(4-phenethylbenzyl)oxy]phenethyl}amino)methyl]benzoic acid]: the wash-out score is on record as 30% and the “effect on perfusion pressure (PP)” value is listed as “pronounced reduction of perfusion pressure”.

Consider `O=C(O)c1ccc(CCN(CCc2ccccc2OCc2ccc(-c3ccc(C(F)(F)F)cc3)cc2Cl)[C@H]2CCCc3nc(C(=O)O)ccc32)cc1` [comparative example 11, (5S)-5-{[2-(4-carboxyphenyl)ethyl][2-(2-{[3-chloro-4′-(trifluoromethyl)[biphenyl]-4-yl]methoxy}phenyl)ethyl]amino}-5,6,7,8-tetrahydroquinoline-2-carboxylic acid], for which the wash-out score stood at 2.9% and the “effect on perfusion pressure (PP)” value is “pronounced reduction of perfusion pressure”. For the setting “300 nmol/l”, the “Wash-out score (%) after 60 min” value was 2.9%, the “Perfusion pressure (%) (timepoint at 20 min) Mean” value amounted to 69.0% and the “Perfusion pressure (%) (timepoint at 90 min) Mean” value was 71.9%.

`O=C(O)CCCCN(CCc1cc(F)ccc1OCc1ccc(-c2nc3cc(Cl)ccc3o2)cc1)C1CCCc2nc(C(=O)O)ccc21` (single isomer, unassigned) [comparative example 3, (5)-{(4-carboxybutyl)[2-(2-{[4-(5-chloro-1,3-benzoxazol-2-yl)benzyl]oxy}-5-fluorophenyl)ethyl]amino}-5,6,7,8-tetrahydroquinoline-2-carboxylic acid]: the wash-out score came to 25.4% and the “effect on perfusion pressure (PP)” value was “pronounced reduction of perfusion pressure”. For the same compound, where the note is “100 nmol/l”, the “Wash-out score (%) after 60 min” value came to 25.4%, the “Perfusion pressure (%) (timepoint at 20 min) Mean” value is reported as 63.3% and the “Perfusion pressure (%) (timepoint at 90 min) Mean” value is 72.5%.
